# Source: patent US11896602B2, “Method for preventing pregnancy” (ESTETRA SRL, priority 2016, dated 2024)
# Columns and labels:
# [1] = test system: healthy female subjects; test: Example 1 clinical study, one 28-day cycle: dysmenorrhea as treatment-emergent adverse event; type: in vivo, human
# Experimental: During that study, healthy female subjects were treated for one 28-day cycle with either 10 or 20 mg E4 alone (n=10 and 11, respectively) or with a combination of E4 with either Progesterone (P) or Desogestrel (DSG) (n=15 or 16, respectively).
# At baseline, occasional dysmenorrhea was reported by 11 subjects (21.2%), and frequent dysmenorrhea was reported by 19 subjects (36.5%). Overall, dysmenorrhea was reported by 25% to 53.3% of the subjects included in this trial.
# As shown in Table 3 of Treatment-emergent adverse events (TE-AE) below, reporting of dysmenorrhea during the treatment phase was low in comparison to the incidence recorded at baseline.
# [2] = Triglycerides levels on daily estrogen use; type: in vivo, human; conditions: even at higher dosages
# Description: Besides, the daily use of currently marketed estrogens (ethinylestradiol (EE), E2, E2V, conjugated equine estrogens) is associated with a dose-proportional increase in triglycerides levels. In the human body, high levels of triglycerides in the bloodstream have been linked to atherosclerosis and, by extension, the risk of heart disease and stroke.
# [3] = Terminal half-life; conditions: in vivo
# [4] = 10 mg E4, n = 10, one 28-day cycle
# [5] = 20 mg E4 alone (n = 11), with DSG (n = 15) or with P4 (n = 16), one 28-day cycle
compound,measurement,setting,value
"C[C@]12CC[C@@H]3c4ccc(O)cc4CC[C@H]3[C@@H]1[C@@H](O)[C@@H](O)[C@@H]2O [E4, estetrol]","Dysmenorrhea TE-AE, % of subjects",[1]; [4],10.0%
same,"Dysmenorrhea TE-AE, number of subjects",[1]; [4],1
same,"Dysmenorrhea TE-AE, % of subjects",[1]; [5],9.1%
same,"Dysmenorrhea TE-AE, number of subjects",[1]; [5],1
same,triglycerides levels,[2],minimally increases triglycerides levels
same,terminal half-life,[3],31.7 h
